Among the test systems are SK-MEL-5 melanoma; SK-MEL-2 melanoma; ACHN renal; HCT-15 colon; SK-MEL-28 melanoma; SF-268 CNS; EKVX NSCLC; MCF7 breast; OVCAR-8 ovarian.
Holding throughout (experiment): DTP human tumour cell line panel, 48 h

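1) Cells in 96-well plates. 2) Compound, 48 h, 5 concentrations. 3) Linear interpolation between surrounding doses. 4) Unreached endpoint = highest concentration. GI50 is the concentration that inhibits growth by half. TGI is the concentration that stops growth completely.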

The TGI is the concentration giving total growth inhibition. A high value points to less potent growth arrest. The term GI50 denotes the concentration giving 50% growth inhibition.

Regarding `O=C1C2C3C=CC(C2C(=O)N1CN1CCSCC1)C1C2C(=O)N(CN4CCSCC4)C(=O)C2C31` (stereo not given), the concentration for total growth inhibition (TGI) is above 100 µM with SK-MEL-5 melanoma; above 100 µM in the assay with SK-MEL-2 melanoma; above 100 µM with ACHN renal; above 59.7 µM in the assay with HCT-15 colon; above 100 µM in the assay with SK-MEL-28 melanoma; above 91.6 µM with SF-268 CNS. Also, the TGI with EKVX NSCLC and in the assay with OVCAR-8 ovarian was above 100 µM each time. The GI50 with MCF7 breast was 69.1 µM.
In the case of `[O-]c1c2c(nn1-c1ccc(Cl)cc1)c1ccccc1c[n+]2Cc1ccccc1`, the TGI with SK-MEL-5 melanoma, in the assay with SK-MEL-2 melanoma, in the assay with ACHN renal, with SK-MEL-28 melanoma, in the assay with SF-268 CNS and in the assay with EKVX NSCLC was above 100 µM throughout. The molecule further gave a TGI in the assay on OVCAR-8 ovarian above 100 µM.
Take `C1C[OH+]CC[OH+]CCNCC[OH+]CC[OH+]CCN1.Cl.[Cl-].[Pt+4]`: the GI50 in the assay with SK-MEL-5 melanoma, in the assay with ACHN renal, with HCT-15 colon, in the assay on SK-MEL-28 melanoma, with SF-268 CNS and in the assay with EKVX NSCLC was above 100000 nM each time. The GI50 with OVCAR-8 ovarian is above 100000 nM. The total growth inhibition concentration (TGI) in the assay with SK-MEL-5 melanoma, in the assay on ACHN renal, in the assay with HCT-15 colon, in the assay on SK-MEL-28 melanoma, in the assay with SF-268 CNS and with EKVX NSCLC was above 100 µM in each case. Besides, the TGI in the assay with OVCAR-8 ovarian is above 100 µM.
As for `CCN(CC)CCn1c2ccccc2c(=O)c2c(OC)ccc(OC)c21`, the TGI in the assay on SK-MEL-2 melanoma, with ACHN renal, in the assay with HCT-15 colon, with SF-268 CNS, in the assay on EKVX NSCLC and in the assay on OVCAR-8 ovarian was above 100 µM throughout.
In the case of `COc1cc(/C=C2/C(=O)N(C(=O)OCc3ccccc3)C(Cc3cc(OC)c(OC)c(C)c3OC)C(=O)N2Cc2ccccc2)c(OC)c(C)c1OC` (stereo not given), the TGI in the assay on SK-MEL-5 melanoma is 65.9 µM; in the assay with SK-MEL-2 melanoma it was above 100 µM; in the assay on ACHN renal it was above 100 µM; in the assay on SK-MEL-28 melanoma, above 100 µM; in the assay on SF-268 CNS, above 100 µM; in the assay on EKVX NSCLC it was above 100 µM. Further, the TGI in the assay on OVCAR-8 ovarian was above 100 µM.
Regarding `CCOCc1cc(=O)c2c(OC)cc3c(c2o1)CCC(C)(C)O3`, the TGI with SK-MEL-5 melanoma, in the assay on SK-MEL-2 melanoma, with ACHN renal, in the assay on HCT-15 colon, in the assay with SK-MEL-28 melanoma and in the assay on EKVX NSCLC was above 100 µM each time. The concentration for total growth inhibition (TGI) in the assay on OVCAR-8 ovarian was above 100 µM.
As for `Cc1ccccc1C1CC(c2ccccc2)=NO1` (stereo not given), the TGI in the assay with SK-MEL-5 melanoma, in the assay on SK-MEL-2 melanoma, in the assay on ACHN renal, with HCT-15 colon, in the assay with SK-MEL-28 melanoma and with SF-268 CNS was above 100 µM each time. Further, the total growth inhibition concentration (TGI) with EKVX NSCLC and in the assay with OVCAR-8 ovarian was above 100 µM throughout.
As to `CCOC(=O)c1cccnc1C(OC(C)=O)OC(C)=O`, the TGI in the assay with SK-MEL-5 melanoma, with SK-MEL-2 melanoma, in the assay with ACHN renal, with HCT-15 colon, in the assay with SK-MEL-28 melanoma and in the assay on SF-268 CNS was above 100 µM throughout. The concentration for total growth inhibition (TGI) in the assay with EKVX NSCLC and with OVCAR-8 ovarian was above 100 µM in each case.
For `O=c1cc(-c2ccccc2)[nH]c2cc(Cl)ccc12`, the TGI in the assay on SK-MEL-5 melanoma is 19.6 µM; with SK-MEL-2 melanoma it was above 100 µM; in the assay with ACHN renal, 31 µM; in the assay with HCT-15 colon it was 15.8 µM; with SK-MEL-28 melanoma, above 100 µM; with SF-268 CNS, above 100 µM. Further, the TGI in the assay with EKVX NSCLC was above 100 µM; with OVCAR-8 ovarian it was 33.1 µM.
As to `CCOC(=O)C(C(O)c1ccc([N+](=O)[O-])cc1)P(=O)(OCC)OCC` (stereo not given), the TGI in the assay on SK-MEL-5 melanoma, in the assay on SK-MEL-2 melanoma, in the assay with ACHN renal, with HCT-15 colon, in the assay with SK-MEL-28 melanoma and with SF-268 CNS was above 100 µM in each case. In addition, the TGI in the assay with EKVX NSCLC and in the assay on OVCAR-8 ovarian was above 100 µM each time.
For `CC1C2CC=CC(=O)[C@@]2(C)CCC12OCCO2` (stereo not given in full), the TGI is 65.4 µM in the assay with SK-MEL-5 melanoma; above 100 µM in the assay with SK-MEL-2 melanoma; above 100 µM with ACHN renal; above 100 µM in the assay with SK-MEL-28 melanoma; above 100 µM in the assay on SF-268 CNS; above 100 µM in the assay on EKVX NSCLC. Further, the TGI in the assay on OVCAR-8 ovarian is above 100 µM.
Turning to `CCOC1CC2OC(=O)C1C=C2C(=O)OC` (stereo not given), the TGI in the assay with SK-MEL-5 melanoma was above 100 µM; with SK-MEL-2 melanoma it was 65.7 µM; with ACHN renal, above 100 µM; in the assay on HCT-15 colon, above 100 µM; with SK-MEL-28 melanoma it was 62.8 µM; with SF-268 CNS it was above 100 µM. Besides, in the assay on EKVX NSCLC, the total growth inhibition concentration (TGI) is above 100 µM.
Consider `COC(=O)C(/C(=N\NC(N)=S)C(=O)Nc1ccccc1[N+](=O)[O-])c1cnc2ccccc2n1` (stereo not given), for which the TGI in the assay on SK-MEL-5 melanoma, with SK-MEL-2 melanoma, in the assay on ACHN renal, in the assay with HCT-15 colon, in the assay on SK-MEL-28 melanoma and in the assay on SF-268 CNS was above 100 µM in each case. The TGI with EKVX NSCLC and with OVCAR-8 ovarian was above 100 µM throughout.
For the molecule `C=CCN(N=O)C(=O)NCCCCC(NC(C)=O)C(=O)NCc1ccccc1` (stereo not given), the total growth inhibition concentration (TGI) in the assay on SK-MEL-5 melanoma, in the assay with SK-MEL-2 melanoma, in the assay on ACHN renal, in the assay with HCT-15 colon, in the assay on SK-MEL-28 melanoma and with SF-268 CNS was above 100 µM each time. In addition, the concentration for total growth inhibition (TGI) with EKVX NSCLC and with OVCAR-8 ovarian was above 100 µM in each case.
As for `CN1CCN(Cc2cc(NC(=O)c3cccc(C#Cc4cccc5[nH]nc(N)c45)c3)cc(C(F)(F)F)c2)CC1`, the GI50 is 1700 nM with SK-MEL-5 melanoma; 1720 nM with SK-MEL-2 melanoma; 1660 nM in the assay with ACHN renal; 1810 nM in the assay on HCT-15 colon; 1560 nM with SK-MEL-28 melanoma; 1530 nM in the assay with SF-268 CNS. For the same molecule, the figures for the GI50 with EKVX NSCLC, in the assay with MCF7 breast and with OVCAR-8 ovarian were 1750 nM, 1.65 µM and 1850 nM, respectively. The TGI came to 3.1 µM with SK-MEL-5 melanoma; 3.4 µM with SK-MEL-2 melanoma; 3.02 µM in the assay with ACHN renal; 3.37 µM with HCT-15 colon; 2.94 µM with SK-MEL-28 melanoma; 3.15 µM with SF-268 CNS. The TGI in the assay with EKVX NSCLC worked out at 3.26 µM; in the assay with MCF7 breast, 3.26 µM; in the assay with OVCAR-8 ovarian, 3.62 µM.

(Values after PubChem BioAssay (NCI).)
